Test results as given in BindingDB's records for PubMed 34889100 (University of Health Sciences and Pharmacy, 2021).

Molecular target: Bile acid receptor NR1H4 (Homo sapiens) (UniProt Q96RI1)
Experiment: Agonist activity at FXR in human HepG2 cells

Bile acid receptor NR1H4 (Homo sapiens), sequence (Q96RI1 whole entry, looked up): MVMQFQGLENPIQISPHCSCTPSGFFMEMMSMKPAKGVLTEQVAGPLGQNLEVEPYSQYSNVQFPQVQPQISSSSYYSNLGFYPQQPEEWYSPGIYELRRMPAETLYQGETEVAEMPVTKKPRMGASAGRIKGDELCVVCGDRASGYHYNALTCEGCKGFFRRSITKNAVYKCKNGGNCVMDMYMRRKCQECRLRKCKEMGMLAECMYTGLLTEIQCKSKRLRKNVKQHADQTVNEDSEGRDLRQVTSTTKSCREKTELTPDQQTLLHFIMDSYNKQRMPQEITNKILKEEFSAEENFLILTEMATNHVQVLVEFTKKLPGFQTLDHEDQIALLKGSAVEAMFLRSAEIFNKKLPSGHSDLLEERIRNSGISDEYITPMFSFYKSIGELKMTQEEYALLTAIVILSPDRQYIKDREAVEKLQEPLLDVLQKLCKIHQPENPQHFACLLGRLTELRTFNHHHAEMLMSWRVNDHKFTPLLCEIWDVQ

| EC50 [nM] | SMILES |
| --- | --- |
| 0.75 | O=C(O)c1ccc([C@@H]2C[C@H]2c2ccc(OCc3c(-c4c(Cl)cccc4Cl)noc3C3CC3)cc2Cl)cc1 |
| 0.35 | O=C(O)c1cc(F)c2nc(N3C[C@@H]4C[C@H]3C[C@H]4OCc3c(-c4ccccc4OC(F)(F)F)noc3C3CC3)sc2c1 |
